Tests used:
DHT = DHT quantification with Elisa kit in PC3 cells treated with excessive testosterone; format: cell-based, human; details: PC3 cells with excessive testosterone 8.8 μg/ml, finasteride 2 μg/ml (positive control)
Protocol: Total protein was isolated after 24 hours treatment with the extract of Curcuma mangga Val. et Zipp. The isolation was performed using Lysis Buffer and TRIzol method. The result of total protein isolation further was calculated using Lowry method. Protein that was obtained subsequently was used as a sample for Western Blot against 5-alpha-reductase and DHT, and the DHT test using Elisa kit Alpha Diagnostic International. The analytical process of semi-Western Blot was performed in accordance to the general method, which is using specific antibody for 5-alpha-reductase-1 and DHT. The detection of Western Blot was performed using HRP-conjugated (Horseradish Peroxidase) secondary antibody and coloring with luminol.
Quantitative analysis was performed using Elisa kit in accordance to the protocol provided by the manufacturer. PC3 cells that were used in this present invention was treated with excessive testosterone which is 8.8 μg/ml, and was treated with 150 μg/ml Curcuma mangga Val. et Zipp extract and 2 μg/ml finasteride, in separate groups. In this present invention, the finasteride treatment group was a positive control.

[1] = system: male rats (Rattus norvegicus) Wistar strain with induced prostate gland growth; test: Inhibition of prostate gland growth in castrated, testosterone-induced rats; format: in vivo; details: finasteride 1 mg/kg
Protocol: Animals that were used in the present invention were male rats (Rattus norvegicus) Wistar strain weighing between 200-250 grams from Indoanilab, Bogor, Indonesia. The animals were bred in special cages, in groups, with a normal light setting, which are 12 hours of light and 12 hours of dark and received food and drinking water ad libitum.
The animals were divided into five groups: sham-operated group (normal group), negative control group that is BPH group without any treatment, positive control group that is treated with finasteride 1 mg/kg of body weight, and treatment group which divided into two groups based on the dose of Curcuma mangga Val. et Zipp. extract that they received, namely 92.37 mg/kg and 184.74 mg/kg of body weight. In all animals the growth of its prostate gland were induced, except for the animals in the sham-operated group.
Those rats were induced with subcutaneous administration of testosterone injection to stimulate the growth of prostate gland at the dose of 10 mg/kg body weight, every day for 7 days. The administration of testosterone injection was performed after the removal of testes (castration) and sham surgery in rats. The castration procedures were performed to avoid bias caused by the differences of testosterone amount produced by each individual rat.

In the case of CC(C)(C)NC(=O)[C@H]1CC[C@H]2[C@@H]3CC[C@H]4NC(=O)C=C[C@]4(C)[C@H]3CC[C@]12C [finasteride], the “DHT levels (Elisa kit)” value (DHT) is reported as “reduced levels of DHT” and the DHT plasma concentration [1] is reported as “suppression of DHT plasma concentration”.
